By inhibition in vivo is commonly meant the drop in the measured response relative to a control, in per cent.

Series [1] has as its system Rattus norvegicus. The series is described as follows: Antidiabetic activity in fasted glucose fed hyperglycemic normal Rattus norvegicus Wistar albino (rat) assessed as blood glucose level at 0.05 mmol/kg administered 30 min prior to glucose-challenge measured after 60 min (reference value: 126.5 +/- 3.8 mg/dl). The series is classed as functional.
The test system of series [2] is Rattus norvegicus. The experiment in a line: Anti-inflammatory activity in Rattus norvegicus Wistar albino (rat) assessed as inhibition of carrageenan-induced paw edema at 0.05 mmol/kg administered 30 min prior to carrageenan-challenge measured after 3 hr relative to control. Format: functional. In general terms: In the carrageenan paw model, swelling and tenderness develop within hours.

Series [3] has as its system Rattus norvegicus. The experiment in a line: Anti-inflammatory activity in Rattus norvegicus Wistar albino (rat) assessed as inhibition of carrageenan-induced paw edema at 0.05 mmol/kg administered 30 min prior to carrageenan-challenge measured after 5 hr relative to control. The series is classed as functional.
Series [4] deals with Rattus norvegicus. The experiment in a line: Ulcerogenic activity in fasted Rattus norvegicus Wistar albino (rat) at 0.15 mmol/kg , po measured after 6 hr. The series is classed as toxicity, organism-based. Particulars: in vivo.

With `NS(=O)(=O)c1ccc(N2N=C(c3cccc(O)c3)C[C@H]2c2ccc(Cl)cc2)cc1`, the Activity in series [1] was found to be 134 mg/dL. For the same compound, the results for the inhibition in vivo at 50 µmol/kg in series [2] and in series [3] were 19.2% and 51.8%, respectively.
With `COc1ccc([C@@H]2CC(c3cccc(O)c3)=NN2c2ccc(S(N)(=O)=O)cc2)cc1`, the Activity in series [1] amounted to 116.5 mg/dL. In addition, the inhibition in vivo at 50 µmol/kg in series [2] worked out at 64.7%; in series [3] it was 62.9%.
For `Cc1ccc(-c2cc(C(F)(F)F)nn2-c2ccc(S(N)(=O)=O)cc2)cc1` [CELECOXIB], the figures for the inhibition in vivo at 50 µmol/kg in series [2] and in series [3] were 75.9% and 82.2%, respectively.
On to `NS(=O)(=O)c1ccc(N2N=C(c3cccc(O)c3)C[C@H]2c2ccccc2Cl)cc1`, for which, in series [1], the Activity worked out at 121 mg/dL. For the same compound, the inhibition in vivo at 50 µmol/kg came out at 32.6% in series [2] and 70.3% in series [3].
For the compound `NS(=O)(=O)c1ccc(N2N=C(c3cccc(O)c3)C[C@H]2c2ccco2)cc1`, the Activity in series [1] stood at 133 mg/dL. The inhibition in vivo at 50 µmol/kg stood at 35.8% in series [2] and 29.6% in series [3].
`NS(=O)(=O)c1ccc(N2N=C(c3cccc(O)c3)C[C@H]2c2ccccc2)cc1`: the Activity in series [1] is 126.3 mg/dL; in series [4], “Non-toxic”. Also, the figures for the inhibition in vivo at 50 µmol/kg in series [2] and in series [3] were 35.8% and 77.7%, respectively.
For `COc1ccc([C@@H]2CC(c3cccc(O)c3)=NN2c2ccc(S(N)(=O)=O)cc2)cc1OC`, the Activity in series [1] came out at 111 mg/dL. Besides, the inhibition in vivo at 50 µmol/kg in series [2] is 55.9%; in series [3] it was 66.7%.
As for `Cc1ccc(S(=O)(=O)NC(=O)NN2CC3CCCC3C2)cc1` (configuration not stated) [GLICLAZIDE], the Activity in series [1] is 85.83 mg/dL.
For the compound `NS(=O)(=O)c1ccc(N2N=C(c3cccc(O)c3)C[C@H]2/C=C/c2ccccc2)cc1`, in series [1], the Activity was 131 mg/dL. The inhibition in vivo at 50 µmol/kg in series [2] was determined as 39.9%; in series [3], 59.2%.
The corresponding values for `NS(=O)(=O)c1ccc(N2N=C(c3cccc(O)c3)C[C@H]2c2ccccc2O)cc1` are 133 mg/dL, 35.4% and 55.5%.
With `NS(=O)(=O)c1ccc(N2N=C(c3cccc(O)c3)C[C@H]2c2ccc(O)cc2)cc1`, the Activity in series [1] is 121 mg/dL; in series [4] it was “Non-toxic”. For the same compound, the inhibition in vivo at 50 µmol/kg in series [2] came out at 64.7%; in series [3], 77.7%.
As for `NS(=O)(=O)c1ccc(N2N=C(c3cccc(O)c3)C[C@H]2c2c3ccccc3cc3ccccc23)cc1`, the values for the Activity in series [1] and in series [4] were 136.6 mg/dL and “Non-toxic”, respectively. Further, the inhibition in vivo at 50 µmol/kg in series [2] stood at 59.8%; in series [3] it was 77.7%.
In the case of `COc1cc([C@@H]2CC(c3cccc(O)c3)=NN2c2ccc(S(N)(=O)=O)cc2)cc(OC)c1OC`, in series [1], the Activity turned out to be 94.6 mg/dL. The inhibition in vivo at 50 µmol/kg in series [2] is 51.9%; in series [3], 74.4%.
Regarding `Cc1ccc([C@@H]2CC(c3cccc(O)c3)=NN2c2ccc(S(N)(=O)=O)cc2)cc1`, the Activity in series [1] was determined as 138.6 mg/dL. For the same compound, the figures for the inhibition in vivo at 50 µmol/kg in series [2] and in series [3] were 64.7% and 66%, respectively.

These data come from ChEMBL document CHEMBL3046452, “Synthesis and pharmacological evaluation of some novel 2-pyrazolines bearing benzenesulfonamide as anti-inflammatory and blood glucose lowering agents” (Med Chem Res, 2013).
